These results are taken from US20260216239A1 (Arizona Board of Regents on Behalf of the University of …, priority 2020, published 2026).

Read-outs that look alike come from different tables or passages of the source.

Test [1] relates to C. scutulatus scutulatus venom. Particulars: CORM-2 as single agent; cited from earlier work.
The test system of test [2] is Atheris nitschei venom. The note with it: previously characterized by this laboratory; cited from earlier work.
The test system of test [3] is human plasma. It counts as biochemical. How it is done: Given that the only compounds present with anions different from RuCl3 potentially available to displace Cl in the PBS used was KH2PO4 (1.5 mM) and Na2HPO4 (8.1 mM), a comparison of the effects of 1 and 10 μM RuCl3 (final concentration) dissolved in dH2O or PBS was performed in plasma as a 1% addition (v/v) with coagulation assessed via thrombelastography.
The volumes of subsequently described plasmatic and other additives summed to a final volume of 360 μL. Samples were composed of 320 μL of plasma; 16.4 μL of PBS, 20 μL of 200 mM CaCl2), and 3.6 μL of PBS, RuCl3, or venom solution mixture, which were pipetted into a disposable cup in a Thrombelastograph® hemostasis system (Model 5000, Haemonetics Inc., Braintree, MA, USA) at 37° C., and then rapidly mixed by moving the cup up against and then away from the plastic pin five times. The PBS, RuCl3, or venom solution mixtures was always the last constituent added prior to mixing and data collection. The following viscoelastic parameters described previously (see, Nielsen, V. G.; et al., Biometals 2016, 29, 913-919; Nielsen, V. G.; Losada, P. A. Basic Clin. Pharmacol. Toxicol. 2017, 120, 207-212; Nielsen, V. G.; Frank, N. J. Thromb. Thrombolysis 2019, 47, 533-539; Nielsen, V. G.; Bazzell, C. M. J. Thromb. Thrombolysis 2017, 43, 203-208; Nielsen, V. G.; Matika, R. W. Hum. Exp. Toxicol. 2017, 36, 727-733; Nielsen, V. G.; et al., Toxins 2018, 10, 322; Nielsen, V. G.; et al., Biometals 2018, 31, 51-59; Nielsen, V. G.; Frank, N. et al., Biometals 2018, 31, 951-959; Nielsen, V. G.; et al., Toxins 2019, 11, 94; Nielsen, V. G.; Frank, N. Hum Exp. Toxicol. 2019, 38, 216-226; Nielsen, V. G. J. Thromb. Thrombolysis 2019, 48, 256-262; Nielsen, V. G.; et al., Blood Coagul. Fibrinolysis 2019, 30, 379-384; Nielsen, V. G. J. Thromb. Thrombolysis 2019, 47, 73-79) were measured: time to maximum rate of thrombus generation (TMRTG): this is the time interval (minutes) observed prior to maximum speed of clot growth; maximum rate of thrombus generation (MRTG): this is the maximum velocity of clot growth observed (dynes/cm^2/s); and total thrombus generation (TTG, dynes/cm^2), the final viscoelastic resistance observed after clot formation. Data were collected until the clot strength reached its final plateau (maximum amplitude) that was stable for 3 min.
Thus, experiments wherein RuCl3 was dissolved in either dH2O or PBS were conducted with the final concentration of RuCl3 in plasma being 1 or 10 μM. Data were collected until maximum amplitude was observed.
Specific volumes of subsequently described plasma and chemical additives varied by condition but summated to 360 μl. Sample composition consisted of 320 μl of plasma; 16.4 μl of PBS, 20 μl of 200 mM CaCl2, and 3.6 μl of one of five subsequently described solutions, which were placed into a disposable cup in a computer-controlled Thrombelastograph® hemostasis system (Model 5000, Haemonetics Inc., Braintree, MA, USA) at 37° C., and then rapidly mixed by moving the cup up against and then away from the plastic pin five times before leaving the mixture between the cup and pin.

The mark [4] stands for this setting: 10 vs 1 μM RuCl3 (final) dissolved in PBS.
Where [5] appears, read: 10 vs 1 μM RuCl3 (final) dissolved in dH2O.

In the case of `[C-]#[O+].[C-]#[O+].[C-]#[O+].[C-]#[O+].[C-]#[O+].[C-]#[O+].[Cl][Ru][Cl].[Cl][Ru][Cl]` [CORM-2, tricarbonyldichlororuthenium(II) dimer], in test [1], the “anticoagulant effects of venom in vitro” value is “very effectively abrogated”. In addition, the “CORM-2/ iRM Inhibition” value in test [2] was “Yes”.

With `[Cl][Ru]([Cl])[Cl]` [RuCl3, ruthenium(III) chloride], in test [3], the “increase in MRTG values” is reported as 37-61%. The “maximum rate of thrombus generation (MRTG)” value is reported as “increased” in test [3] (1 μM RuCl3 dissolved in PBS vs control conditions, preliminary investigation); “increase” in test [3] (setting [4]); “increase” in test [3] (setting [5]). Further, the “total thrombus generation (TTG)” value in test [3] (1 and 10 μM RuCl3 in dH2O or PBS, interaction of RuCl3 and fluid) was “decreased”. Also, the “time to maximum rate of thrombus generation (TMRTG)” value is on record as “significantly decrease” in test [3] (setting [4]) and “significant decrease” in test [3] (setting [5]). Also, the “plasmatic TMRTG or TTG values” in test [3] (RuCl3 1 μM final in water or PBS vs plasma without RuCl3) was “no significant differences”.
